{"source": "patent US20200061090A1", "about": "“AGENT FOR PREVENTING WORSENING OF INSULIN RESISTANCE OR AMELIORATING INSULIN RESISTANCE” (B FOOD SCIENCE CO., LTD., priority 2017, published 2020)", "key": {"[1]": {"test_system": "SD rats", "experiment": "Effect of 1-kestose on rats taking an ordinary diet (healthy model): serum insulin and blood glucose", "assay_type": "in vivo, rat", "details": "for Serum insulin level / Blood glucose level: average ± SD; for Serum insulin level: Group A control 4.34 ± 0.51; for Blood glucose level: Group A control 207 ± 11", "description": "Feed containing 1-kestose in such a way as to be 0, 0.5, 1, 2.5 and 5 mass % was prepared by CLEA Japan, Inc. on commission. The composition of feed is shown below.\nCornstarch: 39.7486, milk casein: 20, pregelatinized cornstarch: 13.2, granulated sugar or granulated sugar and 1-kestose: 10, purified soybean oil: 7, cellulose powder: 5, mineral mix: 3.5, vitamin mix: 1, L-cystine: 0.3, choline bitartrate: 0.25, tertiary butyl hydroquinone: 0.0014.\nForty SD rats (Japan SLC, Inc.) were divided into 5 groups of 8 rats each to be Groups A to E. Group A and Groups B to E had discretionary intake of feed without 1-kestose and 1-kestose-containing feed, respectively, while bred for 30 days. Breeding conditions included a temperature of 23±1° C., a light period of 12 hours (8:00 to 20:00) and a dark period of 12 hours (20:00 to 8:00).\nThe obtained serum was measured for an insulin level by ELISA technique and a glucose level by glucose oxidase method, to calculate an average value and a standard deviation by each Group. Additionally, serum insulin levels and blood glucose levels are shown in FIG. 1 and FIG. 2 in bar graphs, respectively."}, "[2]": {"test_system": "SD rats", "experiment": "Effects of 1-kestose on rats taking a high-fat diet (obese model) or ordinary diet: plasma insulin, blood glucose, body weight", "assay_type": "in vivo, rat", "details": "for Plasma insulin level / Blood glucose level: 135 days; for Plasma insulin level / Blood glucose level / Body weight: average ± SD; for Body weight: end of breeding period (19 weeks)", "description": "SD rats (Japan SLC, Inc.) were divided into 4 groups of 6 to 8 rats each to be Group A to Group D. During the breeding period, Group A and Group C had discretionary intake of tap water. On the other hand, Group B and Group D were allowed to take 1-kestose by providing discretionary intake of a solution in which 1-kestose was dissolved in purified water in such a way as to be 2 mass %. Additionally, Group A and Group B had discretionary intake of […] (Research Diets, Inc.) as an “ordinary diet”, and Group C and Group D had discretionary intake of D12492 (Research Diets, Inc.) as a “high-fat diet”. The rats were bred for 135 days with the same breeding conditions as Example 1 (1) except feed. The composition of feed is shown below.\nCasein: 200, L-cystine: 3, Cornstarch: 506.2, maltodextrin 10: 125, sucrose: 68.8, cellulose BW200: 50, purified soybean oil: 25, lard: 20, mineral mix S10026: 10, dicalcium phosphate: 13, calcium carbonate: 5.5, potassium citrate monohydrate: 16.5, vitamin mix V10001: 10, choline bitartrate: 2, yellow synthetic dye (FD&C Yellow Dye #1): 0.04, blue synthetic dye (FD&C Blue Dye #1): 0.01.\nCasein: 200, L-cystine: 3, maltodextrin 10: 125, sucrose: 68.8, cellulose BW200: 50, purified soybean oil: 25, lard: 245, mineral mix S10026: 10, dicalcium phosphate: 13, calcium carbonate: 5.5, potassium citrate monohydrate: 16.5, vitamin mix V10001: 10, choline bitartrate: 2, blue synthetic dye (FD&C Blue Dye #1): 0.05.\nAs the average intake amount of water taken by a rat per day was about 22 mL/rat.\nThe rats of each Group in this Example 2 (1) were measured for body weight every week during the breeding period, and an average value by each Group was calculated and expressed in line graphs. Note that the body weights (g) of each Group at the start of breeding period were 272±5 for Group A, 268±6 for Group B, 272±3 for Group C, and 269±3 for Group D.\nFurther, plasma insulin levels and blood glucose levels were measured by the method described in Example 1 (2) to calculate an average value and a standard deviation by each Group. […] Additionally, insulin levels and glucose levels are shown in FIG. 4 and FIG. 5 in bar graphs, respectively."}, "[3]": {"test_system": "LETO (Long-Evans Tokushima Otsuka) rats", "experiment": "Effect of 1-kestose on LETO control rats of the type 2 diabetes model: plasma insulin and blood glucose", "assay_type": "in vivo, rat", "description": "(§1) OLETF (Otsuka Long-Evans Tokushima Fatty) rats (Japan SLC, Inc.), which are model animals with pathological conditions of type 2 diabetes, and LETO (Long-Evans Tokushima Otsuka) rats (Japan SLC, Inc.), which are the controls thereof, were prepared. The LETO rats were divided into 2 groups of 5 rats each to be Group A and Group B. Further, the OLETF rats were divided into 3 groups of 8 rats each to be Group C, Group D, and Group E. During the breeding period, Group A and Group C had discretionary intake of “feed without 1-kestose” described in Example 1 (1), Group B and Group E had discretionary intake of “feed containing 5 mass % of 1-kestose”, and Group D had discretionary intake of “feed containing 1 mass % of 1-kestose”. The rats were bred for 14 days with the same breeding conditions as Example 1 (1)\n(§2) For the rats of each Group of this Example 3 (1), plasma insulin levels and blood glucose levels were measured by the method described in Example 1 (2) to calculate an average value and a standard deviation by each Group. Additionally, plasma insulin levels and blood glucose levels are shown in FIG. 6 and FIG. 7 in bar graphs, respectively."}, "[4]": {"test_system": "OLETF (Otsuka Long-Evans Tokushima Fatty) rats", "experiment": "Effect of 1-kestose on type 2 diabetes model OLETF rats: plasma insulin and blood glucose", "assay_type": "in vivo, rat", "details": "for Plasma insulin level / Blood glucose level: 14 days, average ± SD; for Plasma insulin level: Group C control 3.36 ± 0.53; for Blood glucose level: Group C control 151 ± 6", "description": "as §1, §2"}, "[5]": {"details": "Food processing and ingredients, Vol. 49, No. 12, p. 9, 2014; cited from earlier work"}, "[6]": {"details": "Group C, feed containing 1% of 1-kestose (0.54 g/kg body weight daily), 30 days"}, "[7]": {"details": "Group D, feed containing 2.5% of 1-kestose (1.34 g/kg body weight daily), 30 days"}, "[8]": {"details": "Group E, feed containing 5% of 1-kestose (2.71 g/kg body weight daily), 30 days"}, "[9]": {"details": "OLETF rats, Group D, feed containing 1% of 1-kestose (table prints 1.34 g/kg body weight daily)"}, "[10]": {"details": "OLETF rats, Group E, feed containing 5% of 1-kestose (2.71 g/kg body weight daily)"}}, "data": [{"smiles": "OC[C@H]1O[C@@](CO)(OC[C@@]2(O[C@H]3O[C@H](CO)[C@@H](O)[C@H](O)[C@H]3O)O[C@H](CO)[C@@H](O)[C@@H]2O)[C@@H](O)[C@@H]1O", "note": "[1-kestose]", "values": [{"measurement": "Serum insulin level", "setting": "[1]; Group B, feed containing 0.5% of 1-kestose (0.27 g/kg body weight daily), 30 days, n=8", "result": "3.04 ± 0.38", "unit": "ng/mL"}, {"measurement": "Blood glucose level", "setting": "[1]; Group B, feed containing 0.5% of 1-kestose (0.27 g/kg body weight daily), 30 days", "result": "202 ± 10", "unit": "mg/dL"}, {"measurement": "Serum insulin level", "setting": "[1]; [6]", "result": "3.08 ± 0.31", "unit": "ng/mL"}, {"measurement": "Blood glucose level", "setting": "[1]; [6]", "result": "192 ± 11", "unit": "mg/dL"}, {"measurement": "Serum insulin level", "setting": "[1]; [7]", "result": "2.56 ± 0.31", "unit": "ng/mL"}, {"measurement": "Blood glucose level", "setting": "[1]; [7]", "result": "202 ± 4", "unit": "mg/dL"}, {"measurement": "Serum insulin level", "setting": "[1]; [8]", "result": "2.01 ± 0.24", "unit": "ng/mL"}, {"measurement": "Blood glucose level", "setting": "[1]; [8]", "result": "188 ± 7", "unit": "mg/dL"}, {"measurement": "Blood glucose levels compared with rats not taking 1-kestose", "setting": "[1]; Groups A to E, irrelevant to the intake amount", "result": "equivalent blood glucose levels"}, {"measurement": "Serum insulin levels compared with Group A (rats not taking 1-kestose)", "setting": "[1]; Groups B, C, D and E (0.5 to 5% 1-kestose in feed) vs Group A, 30 days", "result": "significantly lower"}, {"measurement": "Blood glucose levels compared among groups", "setting": "[2]; Groups A to D, regardless of whether or not 1-kestose was taken", "result": "equivalent blood glucose levels"}, {"measurement": "Plasma insulin levels of rats taking the high-fat diet and 1-kestose compared with rats taking the ordinary diet", "setting": "[2]; High-fat diet, Group D vs Groups A and B, Group C notably higher", "result": "equivalent plasma insulin levels"}, {"measurement": "Plasma insulin level", "setting": "[2]; High-fat diet, Group D, 2 mass % 1-kestose solution (0.44 g/rat daily), Group C tap water 6.65 ± 1.03", "result": "2.28 ± 0.63", "unit": "ng/mL"}, {"measurement": "Blood glucose level", "setting": "[2]; High-fat diet, Group D, 2 mass % 1-kestose solution (0.44 g/rat daily), Group C tap water 155 ± 4", "result": "147 ± 2", "unit": "mg/dL"}, {"measurement": "Body weight", "setting": "[2]; High-fat diet, Group D, 2 mass % 1-kestose solution (0.44 g/rat daily), Group C tap water 764 ± 32", "result": "718 ± 21", "unit": "g"}, {"measurement": "Blood glucose level", "setting": "[2]; Ordinary diet, Group B, 2 mass % 1-kestose solution (0.44 g/rat daily), Group A tap water 147 ± 5", "result": "143 ± 3", "unit": "mg/dL"}, {"measurement": "Body weight", "setting": "[2]; Ordinary diet, Group B, 2 mass % 1-kestose solution (0.44 g/rat daily), Group A tap water 665 ± 14", "result": "679 ± 22", "unit": "g"}, {"measurement": "Plasma insulin level", "setting": "[2]; Ordinary diet, Group B, 2 mass % 1-kestose solution as drinking water (0.44 g/rat daily), Group A tap water 2.48 ± 0.52", "result": "2.30 ± 0.42", "unit": "ng/mL"}, {"measurement": "Plasma insulin levels compared with LETO rats not taking 1-kestose", "setting": "[3]; Group B vs Group A", "result": "lower plasma insulin levels"}, {"measurement": "Plasma insulin level", "setting": "[3]; LETO rats, Group B, feed containing 5% of 1-kestose (2.71 g/kg body weight daily), 14 days, average ± SD, Group A control 1.49 ± 0.19", "result": "1.08 ± 0.09", "unit": "ng/mL"}, {"measurement": "Blood glucose level", "setting": "[3]; LETO rats, Group B, feed containing 5% of 1-kestose (2.71 g/kg body weight daily), 14 days, average ± SD, Group A control 146 ± 3", "result": "144 ± 2", "unit": "mg/dL"}, {"measurement": "Blood glucose levels compared among groups", "setting": "[3]; LETO rats, regardless of whether or not 1-kestose was taken", "result": "equivalent blood glucose levels"}, {"measurement": "Plasma insulin levels compared with OLETF rats not taking 1-kestose", "setting": "[4]; Group C>Group D>Group E", "result": "lower plasma insulin levels"}, {"measurement": "Plasma insulin level", "setting": "[4]; [9]", "result": "3.04 ± 0.69", "unit": "ng/mL"}, {"measurement": "Blood glucose level", "setting": "[4]; [9]", "result": "163 ± 4", "unit": "mg/dL"}, {"measurement": "Plasma insulin level", "setting": "[4]; [10]", "result": "2.53 ± 0.29", "unit": "ng/mL"}, {"measurement": "Blood glucose level", "setting": "[4]; [10]", "result": "157 ± 3", "unit": "mg/dL"}, {"measurement": "Blood glucose levels compared among groups", "setting": "[4]; OLETF rats, regardless of whether or not 1-kestose was taken", "result": "equivalent blood glucose levels"}, {"measurement": "Toxicity in mutagenicity test, acute toxicity test, subchronic toxicity test and chronic toxicity test", "setting": "[5]", "result": "not recognized to have toxicity"}]}]}
